{
  "source": "paper PMC8894159",
  "about": "“Paltusotine, a novel oral once-daily nonpeptide SST2 receptor agonist, suppresses GH and IGF-1 in healthy volunteers” (Pituitary, 2022)",
  "key": {"[1]": {"test_system": "SST2", "design": "method as in ref 13 = [13]; 13. Betz SF Markison S Kusnetzow AK Athanacio JD Rico-Bautista E Madan A Suppression of growth hormone and insulin-like growth factor 1 in rats after oral administration of CRN00808, a small molecule", "details": "cited from earlier work"}, "[2]": {"assay": "Multiple ascending dose plasma pharmacokinetics in healthy volunteers", "type": "in vivo, human", "details": "for Cmax / Tmax / AUC(0-t) / half-life: human, plasma, oral; for AUC(0-t): read-out: AUC0-24", "description": "In the single-dose phase, participants were randomized 6:2 to paltusotine (1.25, 2.5, 5, 10, 20, 40, and 60 mg) or placebo in 7 cohorts (S1 to S7). Cohorts comparing oral bioavailability of solution versus capsules and the effect of a standardized high-fat, high-calorie breakfast on oral bioavailability of the capsule formulation employed the 10 mg dose level. In the multiple-dose phase, participants were randomized 6:3 to once-daily oral paltusotine capsules or placebo at doses of 5 mg for 7 days (M1, Day Last = Day 7), and 10, 20, and 30 mg daily for 10 days (M2, M3, M4, Day Last = Day 10). The initial starting dose of 1.25 mg in the single-dose phase was selected for this study based on nonclinical pharmacologic activity, pharmacokinetics, and safety studies. Subsequent doses were either specified in the protocol or were selected by the safety review committee responsible for the safety oversight of the study.\nSingle-dose cohorts: Plasma samples were collected on Day 1 (pre-dose, every 15 min up to 90 min post-dose, then at 2, 3, 4, 6, 8, 10, 12, 18, 24, 48, 72, 96, 120, and 144 h post-dose). Multiple-dose cohorts: For the 5 mg cohort, plasma samples were collected on Day 1 (pre-dose, every 15 min up to 90 min post-dose, then at 2, 3, 4, 6, 8, 10, 12, and 18 h post-dose), Days 2–6 (pre-dose and 2 h post-dose), Day 7 (same time points as Day 1, followed by samples at 18, 24, 48, 72, 96, 120, and 144 h post-dose). For all other multiple-dose cohorts, plasma samples were collected on Day 1 (pre-dose, every 15 min up to 90 min post-dose, then at 2, 3, 4, 6, 8, 10, 12, and 18 h post-dose), Days […] (same time points as Day 1, followed by samples at 18, 24, 48, 72, 96, 120, 144, 192, and 240 h post-dose).\nPlasma pharmacokinetic sample analysis for paltusotine was determined using validated procedures by CPR Pharma Services (Thebarton, Australia). Briefly, plasma paltusotine concentrations were determined by high-pressure liquid chromatography (HPLC) coupled with tandem mass spectrometry detection (MS/MS). Deuterated paltusotine was used as an internal standard. Supported liquid extraction was used to extract paltusotine and the internal standard. The analyte was separated by HPLC using an ACE C18-AR column (Advanced Chromatography Technologies, Ltd, Aberdeen, Scotland), and the eluates were monitored by an API 4000™ LC–MS/MS System (Sciex, Framingham, MA) in positive multiple reaction monitoring mode. The extract was then assayed against a calibration curve. The data were acquired and integrated by the data acquisition software Analyst® (Sciex), linked directly to the API 4000™ LC–MS/MS System, and then processed using Watson LIMS™ software (Thermo Scientific, Waltham, MA), where applicable. The calibration range was 0.100 to 100 ng/mL using 100 μL of plasma, with a lower limit of quantification of 0.100 ng/mL. The inter-assay accuracy was 94% to 100%, and the inter-assay precision (% CV) was between 6.1% and 15%.\nFor assessing pharmacokinetics of paltusotine, the single-dose pharmacokinetic population included all randomized participants who received any amount of study drug with sufficient plasma concentration data. For the multiple-dose cohorts, only participants who received all doses were included. The relative bioavailability of the capsule formulation was determined by comparing its pharmacokinetic parameters with those of the solution formulation at the 10 mg dose. Food effect was determined at the same dose by comparing pharmacokinetic parameters in the fasting state to those when paltusotine was administered with a high-fat, high-calorie meal. For both formulation and food effect, ANOVA with treatment as a fixed effect and subject as a random effect was performed. Data for peak concentration (Cmax), AUC0-last, and AUC0-inf were natural log-transformed."}, "[3]": {"design": "method as in ref 14 = [14]; 14. Madan A, Juo R, Ferrara-Cook C, Struthers RS, van Marle S, Krasner A (2020) Absorption, metabolism, excretion and absolute oral bioavailability [ 14 C]-CRN00808, an orally bioavailable, nonpeptide", "details": "cited from earlier work"}, "[4]": {"design": "method as in doi:10.1530/endoabs.70.AEP627", "details": "separate study, cited from earlier work"}, "[5]": {"test_system": "stimulated-GH and IGF-1 secretion", "design": "method as in ref 13 = [13]; 13. Betz SF Markison S Kusnetzow AK Athanacio JD Rico-Bautista E Madan A Suppression of growth hormone and insulin-like growth factor 1 in rats after oral administration of CRN00808, a small molecule", "details": "cited from earlier work"}, "[6]": {"details": "5 mg, 5 mg capsules once daily, Day 1, mean ± SD"}, "[7]": {"details": "5 mg, 5 mg capsules once daily, Day 7, mean ± SD"}, "[8]": {"details": "10 mg, 10 mg capsules once daily, Day 1, mean ± SD"}, "[9]": {"details": "10 mg, 10 mg capsules once daily, Day 10, mean ± SD"}, "[10]": {"details": "20 mg, 20 mg capsules once daily, Day 1, mean ± SD"}, "[11]": {"details": "20 mg, 20 mg capsules once daily, Day 10, mean ± SD"}, "[12]": {"details": "30 mg, 30 mg capsules once daily, Day 1, mean ± SD"}, "[13]": {"details": "30 mg, 30 mg capsules once daily, Day 10, mean ± SD"}},
  "note": "“And” between values parts separate entries of the source, which are not always exact repeats. Identical values can stand only once. Like-named read-outs stand apart in the source and are kept apart here.",
  "data": [
    {"smiles": "Cl.N#Cc1cccc(-c2ccc3ncc(-c4cc(F)cc(F)c4)c(N4CCC(N)CC4)c3c2)c1O", "note": "[paltusotine, 3-[4-(4-Aminopiperidin-1-yl)-3-(3,5-difluorophenyl)quinolin-6-yl]-2-hydroxybenzonitrile hydrochloride]", "values": [
      {"measurement": "selectivity for SST2 over other somatostatin receptor subtypes", "setting": "[1]", "result": "> 4000", "unit": "fold"},
      {"measurement": "EC50", "setting": "[1]; read-out: SST2 agonist EC50", "result": 0.25, "unit": "nM"},
      {"measurement": "Ctrough", "setting": "[2]; 5 mg capsules once daily, Day 7, mean ± SD", "result": "10.8 ± 5.11", "unit": "ng/mL"},
      {"measurement": "Ctrough", "setting": "[2]; 10 mg capsules once daily, Day 10, mean ± SD", "result": "22.2 ng/mL and 22.2 ± 7.38 ng/mL"},
      {"measurement": "Ctrough", "setting": "[2]; 20 mg capsules once daily, Day 10, mean ± SD", "result": "37.9 ± 11.4", "unit": "ng/mL"},
      {"measurement": "Ctrough", "setting": "[2]; 30 mg capsules once daily, Day 10, mean ± SD", "result": "51.1 ± 32.0", "unit": "ng/mL"},
      {"measurement": "Cmax", "setting": "[2]; [6]", "result": "16.8 ± 7.22", "unit": "ng/mL"},
      {"measurement": "Tmax", "setting": "[2]; [6]", "result": "1.2 ± 0.1", "unit": "h"},
      {"measurement": "AUC(0-t)", "setting": "[2]; [6]", "result": "167 ± 73.4", "unit": "ng·h/mL"},
      {"measurement": "half-life", "setting": "[2]; 5 mg, 5 mg capsules once daily, Day 7, sampling to 144 h, mean ± SD, read-out: t1/2 (converted)", "result": "34 ± 4.7", "unit": "h"},
      {"measurement": "Cmax", "setting": "[2]; [7]", "result": "35.5 ± 12", "unit": "ng/mL"},
      {"measurement": "Tmax", "setting": "[2]; [7]", "result": "2.1 ± 0.6", "unit": "h"},
      {"measurement": "AUC(0-t)", "setting": "[2]; [7]", "result": "421 ± 163", "unit": "ng·h/mL"},
      {"measurement": "Cmax", "setting": "[2]; [8]", "result": "78.7 ± 45.3", "unit": "ng/mL"},
      {"measurement": "Tmax", "setting": "[2]; [8]", "result": "1.8 ± 0.9", "unit": "h"},
      {"measurement": "AUC(0-t)", "setting": "[2]; [8]", "result": "661 ± 340", "unit": "ng·h/mL"},
      {"measurement": "half-life", "setting": "[2]; 10 mg, 10 mg capsules once daily, Day 10, sampling to 240 h, mean ± SD, read-out: t1/2 (converted)", "result": "42 ± 5", "unit": "h"},
      {"measurement": "Cmax", "setting": "[2]; [9]", "result": "75.5 ± 37.4", "unit": "ng/mL"},
      {"measurement": "Tmax", "setting": "[2]; [9]", "result": "3 ± 1.8", "unit": "h"},
      {"measurement": "AUC(0-t)", "setting": "[2]; [9]", "result": "956 ± 371", "unit": "ng·h/mL"},
      {"measurement": "Cmax", "setting": "[2]; [10]", "result": "88.7 ± 43.3", "unit": "ng/mL"},
      {"measurement": "Tmax", "setting": "[2]; [10]", "result": "2.4 ± 0.8", "unit": "h"},
      {"measurement": "AUC(0-t)", "setting": "[2]; [10]", "result": "811 ± 409", "unit": "ng·h/mL"},
      {"measurement": "half-life", "setting": "[2]; 20 mg, 20 mg capsules once daily, Day 10, sampling to 240 h, mean ± SD, read-out: t1/2 (converted)", "result": "50 ± 6.6", "unit": "h"},
      {"measurement": "Cmax", "setting": "[2]; [11]", "result": "132 ± 79.2", "unit": "ng/mL"},
      {"measurement": "Tmax", "setting": "[2]; [11]", "result": "1.6 ± 0.4", "unit": "h"},
      {"measurement": "AUC(0-t)", "setting": "[2]; [11]", "result": "1560 ± 733", "unit": "ng·h/mL"},
      {"measurement": "Cmax", "setting": "[2]; [12]", "result": "78.2 ± 60.7", "unit": "ng/mL"},
      {"measurement": "Tmax", "setting": "[2]; [12]", "result": "1.4 ± 0.9", "unit": "h"},
      {"measurement": "AUC(0-t)", "setting": "[2]; [12]", "result": "578 ± 411", "unit": "ng·h/mL"},
      {"measurement": "half-life", "setting": "[2]; 30 mg, 30 mg capsules once daily, Day 10, sampling to 240 h, mean ± SD, read-out: t1/2 (converted)", "result": "46 ± 7.4", "unit": "h"},
      {"measurement": "Cmax", "setting": "[2]; [13]", "result": "154 ± 102", "unit": "ng/mL"},
      {"measurement": "Tmax", "setting": "[2]; [13]", "result": "4.5 ± 2.1", "unit": "h"},
      {"measurement": "AUC(0-t)", "setting": "[2]; [13]", "result": "2080 ± 1220", "unit": "ng·h/mL"},
      {"measurement": "half-life", "setting": "[2]; conclusion summary, read-out: approximate t1/2", "result": "24 to 48", "unit": "h"},
      {"measurement": "half-life", "setting": "[2]; multiple dose 10-30 mg range, sampling to 240 h after last dose, read-out: mean t1/2", "result": "42 to 50", "unit": "h"},
      {"measurement": "oral bioavailability in animals", "setting": "[3]", "result": "high oral bioavailability"},
      {"measurement": "mean absolute oral bioavailability", "setting": "[4]; oral solution", "result": 70, "unit": "%"},
      {"measurement": "t1/2 after intravenous administration", "setting": "[4]; sampling up to 144 h", "result": 29, "unit": "h"},
      {"measurement": "stimulated-GH and IGF-1 secretion in rats", "setting": "[5]", "result": "suppresses stimulated-GH and IGF-1 secretion"}
    ]}
  ]
}
